Test results reported in article PMC4972829, “Olfactory Receptors Modulate Physiological Processes in Human Airway Smooth Muscle Cells” (Frontiers in Physiology, 2016).

What was measured:
OR2AG1 = target: T1, OR2AG1 (Homo sapiens, UniProt Q9H205); assay: fura-2 calcium imaging in native human airway smooth muscle cells; cAMP assay (text prints EC50 […], figure legend […]); format: cell-based
T1 sequence (Q9H205 1-316): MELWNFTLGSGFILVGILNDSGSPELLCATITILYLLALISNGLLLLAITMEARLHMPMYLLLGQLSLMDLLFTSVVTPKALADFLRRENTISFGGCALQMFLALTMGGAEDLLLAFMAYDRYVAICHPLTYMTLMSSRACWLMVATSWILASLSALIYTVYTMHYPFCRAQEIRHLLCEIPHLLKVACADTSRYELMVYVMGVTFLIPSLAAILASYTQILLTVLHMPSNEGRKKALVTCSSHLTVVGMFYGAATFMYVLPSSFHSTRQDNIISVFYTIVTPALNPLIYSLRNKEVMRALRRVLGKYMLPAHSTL

OR1D2 = target: T2, OR1D2 (Homo sapiens, UniProt P34982); assay: fura-2 calcium imaging in native human airway smooth muscle cells; blocked by OR1D2 antagonist undecanal; cAMP assay; format: cell-based
T2 sequence (P34982 1-312): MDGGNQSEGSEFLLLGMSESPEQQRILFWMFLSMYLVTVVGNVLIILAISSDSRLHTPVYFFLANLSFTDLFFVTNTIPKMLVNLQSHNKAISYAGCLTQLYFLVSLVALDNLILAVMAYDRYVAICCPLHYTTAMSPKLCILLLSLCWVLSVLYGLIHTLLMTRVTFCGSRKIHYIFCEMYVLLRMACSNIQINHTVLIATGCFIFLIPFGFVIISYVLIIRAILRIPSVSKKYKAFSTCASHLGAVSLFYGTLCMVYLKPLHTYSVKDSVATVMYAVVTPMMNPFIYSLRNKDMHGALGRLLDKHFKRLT

Row | EC50 (OR2AG1) [µM] | EC50 (OR1D2) [µM] | SMILES
1 | 253 | – | CCCCCOC(=O)CCC [amyl butyrate]
2 | – | 0.504 | CC(C)(C)c1ccc(CCC=O)cc1 [bourgeonal]
